Measurements: ChEMBL document CHEMBL5360532, “Current scenario of quinolone hybrids with potential antibacterial activity against ESKAPE pathogens” (Eur J Med Chem, 2023)
Converted amounts (≈) assume the structure as drawn.

Assays:
Format in all cases: functional
[1] = tested on: Staphylococcus aureus; assay: Potency index, ratio of ciprofloxacin MIC to test compound MIC for antimicrobial activity against Staphylococcus aureus assessed as bacterial growth inhibition by agar cup diffusion assay
[2] = tested on: Staphylococcus aureus; assay: Antibacterial activity against Staphylococcus aureus assessed as bacterial growth inhibition by broth microdilution assay
[3] = tested on: Mycobacterium tuberculosis; assay: Antimycobacterial activity against Mycobacterium tuberculosis H37Rv assessed as bacterial growth inhibition by broth microdilution assay
[4] = tested on: Mycobacterium tuberculosis; assay: Potency index, ratio of rifampicin MIC to test compound MIC for antimycobacterial activity against Mycobacterium tuberculosis H37Rv assessed as bacterial growth inhibition by broth microdilution assay
[5] = tested on: Mycobacterium tuberculosis; assay: Potency index, ratio of isoniazid MIC to test compound MIC for antimycobacterial activity against Mycobacterium tuberculosis H37Rv assessed as bacterial growth inhibition by broth microdilution assay
[6] = tested on: Staphylococcus aureus; assay: Antibacterial activity against methicillin resistant Staphylococcus aureus assessed as bacterial growth inhibition by two fold microdilution assay
[7] = tested on: Staphylococcus aureus; assay: Antibacterial activity against methicillin sensitive Staphylococcus aureus assessed as bacterial growth inhibition by two fold microdilution assay
[8] = tested on: Escherichia coli; assay: Antibacterial activity against Escherichia coli assessed as bacterial growth inhibition by two fold microdilution assay
[9] = tested on: Klebsiella pneumoniae; assay: Antibacterial activity against Klebsiella pneumoniae assessed as bacterial growth inhibition by two fold microdilution assay
[10] = tested on: Staphylococcus aureus; assay: Antibacterial activity against ciprofloxacin resistant Staphylococcus aureus assessed as bacterial growth inhibition by broth microdilution assay
[11] = tested on: Staphylococcus aureus; assay: Antibacterial activity against methicillin resistant Staphylococcus aureus assessed as bacterial growth inhibition by microdilution assay
[12] = tested on: Escherichia coli; assay: Antibacterial activity against Escherichia coli assessed as bacterial growth inhibition by broth microdilution assay
[13] = tested on: Pseudomonas aeruginosa; assay: Antibacterial activity against Pseudomonas aeruginosa assessed as bacterial growth inhibition by broth microdilution assay
[14] = tested on: Escherichia coli; assay: Potency index, ratio of ampicillin MIC to test compound MIC for antimicrobial activity against Escherichia coli assessed as bacterial growth inhibition by broth microdilution assay
[15] = tested on: Pseudomonas aeruginosa; assay: Potency index, ratio of ampicillin MIC to test compound MIC for antimicrobial activity against Pseudomonas aeruginosa assessed as bacterial growth inhibition by broth microdilution assay
[16] = tested on: Staphylococcus aureus; assay: Potency index, ratio of ampicillin MIC to test compound MIC for antimicrobial activity against Staphylococcus aureus assessed as bacterial growth inhibition by broth microdilution assay
[17] = tested on: Staphylococcus aureus; assay: Antibacterial activity against Staphylococcus aureus assessed as bacterial growth inhibition by serial dilution method
[18] = tested on: Pseudomonas aeruginosa; assay: Antibacterial activity against Pseudomonas aeruginosa assessed as bacterial growth inhibition by serial dilution method
[19] = tested on: Mycolicibacterium smegmatis; assay: Antibacterial activity against Mycobacterium smegmatis assessed as bacterial growth inhibition by serial dilution method
[20] = tested on: Staphylococcus aureus; assay: Antibacterial activity against Staphylococcus aureus assessed as zone of inhibition at 50 mg/ml cup plate assay; settings: read-out: IZ
[21] = tested on: Escherichia coli; assay: Antibacterial activity against Escherichia coli assessed as zone of inhibition at 50 mg/ml cup plate assay; settings: read-out: IZ
[22] = tested on: Mycobacterium tuberculosis; assay: Antimycobacterial activity against Mycobacterium tuberculosis H37Rv assessed as bacterial growth inhibition by LJ slant assay
[23] = tested on: Mycobacterium tuberculosis; assay: Antimycobacterial activity against multidrug Mycobacterium tuberculosis assessed as bacterial growth inhibition by LJ slant assay
[24] = tested on: Mycobacterium tuberculosis; assay: Antimycobacterial activity against extensive drug Mycobacterium tuberculosis assessed as bacterial growth inhibition by LJ slant assay
[25] = tested on: Mycobacterium tuberculosis; assay: Potency index, ratio of ciprofloxacin MIC to test compound MIC for antimycobacterial activity against Mycobacterium tuberculosis H37Rv assessed as bacterial growth inhibition by LJ slant assay

O=C(CSc1nnc(N2CCN(c3cc4c(cc3F)c(=O)c(C(=O)O)cn4C3CC3)CC2)s1)c1ccc([N+](=O)[O-])cc1
Ratio [1]: 2
MIC [2]: 1 µg/mL (≈ 1.64 µM)
MIC [3]: 0.5 µg/mL (≈ 0.819 µM)
Ratio [4]: 2
Ratio [5]: 3

O=C(O)c1cn([C@@H]2C[C@@H]2F)c2cc(N3CCN(Cn4nc(-c5ccncc5)n(Cc5ccccc5)c4=S)CC3)c(F)cc2c1=O
MIC [6]: 0.5 µg/mL (≈ 0.794 µM)
MIC [7]: 0.5 µg/mL (≈ 0.794 µM)
MIC [8]: ≤ 0.003 µg/mL
MIC [9]: ≤ 0.003 µg/mL

CCCCCC(=O)N(CCNCCNc1ccc(CN2CCN(c3cc4c(cc3F)CC(C(=O)O)=CN4C3CC3)CC2)cc1)CCN(CCN(CCN(CCN(CCN(CCN(CCN(CCN(CCN(CCN(CCN(CCN(CCN(CCN(CCN(CCN(CCN(CCN(CCN(CCN(CCN(CCN(CCN(CCN(CCN(CCN(CCN(CCN(CCN(CCN(CCNC(C)=O)C(C)=O)C(C)=O)C(C)=O)C(C)=O)C(C)=O)C(C)=O)C(C)=O)C(C)=O)C(C)=O)C(C)=O)C(C)=O)C(C)=O)C(C)=O)C(C)=O)C(C)=O)C(C)=O)C(C)=O)C(C)=O)C(C)=O)C(C)=O)C(C)=O)C(C)=O)C(C)=O)C(C)=O)C(C)=O)C(C)=O)C(C)=O)C(=O)CCCCC)C(=O)CCCCC)C(=O)CCCCC
MIC [10]: 0.44 µg/mL (≈ 0.129 µM)

CCCCC(=O)N(CCNCCNc1ccc(CN2CCN(c3cc4c(cc3F)CC(C(=O)O)=CN4C3CC3)CC2)cc1)CCN(CCN(CCN(CCN(CCN(CCN(CCN(CCN(CCN(CCN(CCN(CCN(CCN(CCN(CCN(CCN(CCN(CCN(CCN(CCN(CCN(CCN(CCN(CCN(CCN(CCN(CCN(CCN(CCN(CCNC(C)=O)C(C)=O)C(C)=O)C(C)=O)C(C)=O)C(C)=O)C(C)=O)C(C)=O)C(C)=O)C(C)=O)C(C)=O)C(C)=O)C(C)=O)C(C)=O)C(C)=O)C(=O)CCCC)C(=O)CCCC)C(=O)CCCC)C(=O)CCCC)C(=O)CCCC)C(=O)CCCC)C(=O)CCCC)C(=O)CCCC)C(=O)CCCC)C(=O)CCCC)C(=O)CCCC)C(=O)CCCC)C(=O)CCCC)C(=O)CCCC)C(=O)CCCC
MIC [10]: 0.62 µg/mL (≈ 0.164 µM)

COP(=O)(OC)C(c1cc(C(C)(C)C)c(O)c(C(C)(C)C)c1)N1CCN(c2cc3c(cc2F)c(=O)c(C(=O)O)cn3C2CC2)CC1 (configuration not stated)
MIC [11]: 0.5 µg/mL

CCn1cc(C(=O)NN2C(=O)/C(=C/C=C/c3ccccc3)SC2=S)c(=O)c2cc(F)ccc21
MIC [2]: < 1 µg/mL
MIC [12]: < 1 µg/mL
MIC [13]: < 1 µg/mL
Ratio [14]: >10
Ratio [15]: >10
Ratio [16]: >10

COC(=O)c1ccc(NC(=O)COC(=O)c2ccncc2)cc1OCCC(=O)NC1CCN(c2c(F)cc3c(=O)c(C(=O)O)cn(C4CC4)c3c2Cl)C1 (configuration not stated)
MIC [17]: 0.125 µg/mL (≈ 0.167 µM)
MIC [18]: 0.125 µg/mL (≈ 0.167 µM)
MIC [19]: 0.125 µg/mL (≈ 0.167 µM)

O=c1c(-c2nnc(S)o2)cn(C2CC2)c2cc(N3CCNCC3)c(F)cc12
zone of inhibition at 50000 µg/mL [20]: 13 mm
zone of inhibition at 50000 µg/mL [21]: 12 mm
MIC [22]: 0.063 µg/mL (≈ 0.163 µM)
MIC [23]: 0.063 µg/mL (≈ 0.163 µM)
MIC [24]: 0.063 µg/mL (≈ 0.163 µM)
Ratio [25]: >=32
